Results from patent publication US5519051A, “Oxa- or azasteroid derivatives” (Teikoku Hormone Mfg. Co., Ltd., priority 1991, dated 1996).
pIC50: −log10 of the molar value.

Target: T1, aromatase (Homo sapiens, UniProt P11511)
T1 construct: human placental microsome (one obtained by centrifugation at 105,000); from tissue; host or cells: human placenta, microsomes (washed with dithiothreitol, freeze-dried)
T1 sequence (P11511 1-503): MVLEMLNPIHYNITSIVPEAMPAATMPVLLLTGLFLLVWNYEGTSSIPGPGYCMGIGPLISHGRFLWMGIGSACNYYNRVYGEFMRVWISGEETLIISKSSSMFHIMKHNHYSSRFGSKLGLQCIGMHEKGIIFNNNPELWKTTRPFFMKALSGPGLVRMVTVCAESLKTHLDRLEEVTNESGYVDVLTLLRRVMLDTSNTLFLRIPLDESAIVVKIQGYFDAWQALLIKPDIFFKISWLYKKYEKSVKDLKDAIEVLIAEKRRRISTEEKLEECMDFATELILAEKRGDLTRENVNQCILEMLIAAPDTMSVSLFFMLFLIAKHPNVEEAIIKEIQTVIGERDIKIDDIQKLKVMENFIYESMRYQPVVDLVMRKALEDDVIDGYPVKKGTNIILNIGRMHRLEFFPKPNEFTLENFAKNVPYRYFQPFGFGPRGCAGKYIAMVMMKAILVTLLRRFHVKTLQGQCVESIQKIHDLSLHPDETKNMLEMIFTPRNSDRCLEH
Assay: aromatase inhibition action (3H2O liberated by aromatization of [1,2-3H] androstenedione, human placental microsome)
Format: biochemical
Conditions: freeze-dried human placental microsome 150 μg; 2 μM [1,2-3H] androstenedione; 180 μM NADPH; pH 7.5; 37° C., 20 minutes
Description: (1) Assay of aromatase inhibition action
According to the method of Ryan (The Journal of Biological Chemistry, 234, 268-272, 1959), human placental microsome (one obtained by centrifugation at 105,000 × g for 60 minutes) was prepared. A microsome was used after being washed twice with 0.5 mM dithiothreitol solution, freeze-driedand stored at -20° C.
Aromatase inhibition action was assayed according to the method developed by Tompson and Siiteri (The Journal of Biological Chemistry, 249, 5373-5378, 1974). The method is to determine the amount of ^3 H2 O liberated by aromatization of [1,2-^3 H] androstenedione. The experiment using the enzyme is carried out in 67 mM phosphate buffer of pH 7.5 so that the amount of the last incubation liquid gets to be 0.5 mi. The incubation liquid contains 180 μM NADPH, 2 μM [1,2-^3 H] androstenedione, 150 μg of the freeze-dried human placental microsome, 25 μl of methanol and a test compound in various concentrations. The incubation is carried out in the air at 37° C. for 20 minutes, 3 ml of chloroform is added to finish the reaction, and then the mixture is stirred for 40 seconds. Then, centrifugation is conducted at 700 × g for 10 minutes, 0.3 ml of the aqueous solution is removed from the supernatant, the scintillation mixture is added, and the amount of ^3 H2 O formed is determined

Compound	pIC50
C[C@]12CC[C@H]3[C@@H](CC(=O)C4=CC(=O)CC[C@@]43C)[C@@H]1CCOC2 [Example 50, D-homo-17-oxaandrost-4-ene-3,6-dione]	5.57
C[C@]12CC[C@H]3[C@@H](C=CC4=CC(=O)C=C[C@@]43C)[C@@H]1CCOC2 [Example 51, D-homo-17-oxaandrosta-1,4,6-trien-3-one]	5.54
C[C@]12CCCC=C1[C@@H]1[C@H]([C@@H]3[C@@H]2CC[C@]2(C)C(=O)OCC[C@@H]32)C1(F)F [Example 28, 6α,7α-difluoromethylene-D-homo-17-oxaandrost-4-en-17a-one]	5.89
C[C@]12CC[C@H]3[C@@H](CCC4=C(O)C(=O)CC[C@@]43C)[C@@H]1CCOC2 [Example 56, 4-hydroxy-D-homo-17-oxaandrost-4-en-3-one]	5.72
C[C@]12CCCC=C1CC[C@@H]1[C@@H]2CC[C@]2(C)C(=O)OC[C@@H]12 [Example 3, 16-oxaandrost-4-en-17-one]	5.92

Results, then the compound that gave them:

pIC50	Compound
6.14	C[C@]12CCCC=C1CC[C@@H]1[C@@H]2CC[C@]2(C)C(=O)OCC[C@@H]12 [Example 25, D-homo-17-oxaandrost-4-en-17a-one]
5.68	C=C1C[C@@H]2[C@H](CC[C@]3(C)C(=O)OCC[C@@H]23)[C@@]2(C)C=CC(=O)C=C12 [Example 36, 6-methylene-17-oxa-D-homoandrosta-1,4-diene-3,17a-dione]
6.22	C[C@]12CCC(=O)C(O)=C1CC[C@@H]1[C@@H]2CC[C@]2(C)C(=O)OCC[C@@H]12 [Example 31, 4-hydroxy-D-homo-17-oxaandrost-4-ene-3,17a-dione]
